Patent US20230089867A1, “CYCLIC PENTAMER COMPOUNDS AS PROPROTEIN CONVERTASE SUBTILISIN/KEXIN TYPE 9 (PCSK9) INHIBITORS FOR THE TREATMENT OF METABOLIC DISORDER” (Novartis AG, priority 2018, published 2023)
Read-outs that look alike come from different tables or passages of the source.

Biological target: human PCSK9 (Homo sapiens, UniProt Q8NBP7)
Assay: PCSK9 ligand binding TR-FRET assay (interference with binding of human PCSK9 to human LDLR)
Conditions: for Max % inhibition: PCSK9 FRET assay, efficacy (Amax), 100% = 1 uM unlabeled human PCSK9, 0% = DMSO
Summary of the method: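 Threefold compound dilutions were pre-incubated 30 min with PCSK9, after which 4 nM Europium Kryptate-tagged human LDLR ectodomain was added for a further 2 h.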

[1] = TR-FRET, human PCSK9 Alexa Fluor 647 / human LDLR extracellular domain-Europium Kryptate, read-out: PCSK9 FRET Assay IC50

Compound	Max % inhibition [%]	IC50 [1] [nM]	IC50 [nM]
COC[C@@H]1NC(=O)[C@H](C)N(Cc2ccc(Cl)cc2Oc2ccc(-c3cnc(CN(C)C)n3C)cc2)C(=O)C[C@@H](CC23CC(C2)C3)C(=O)N(C)[C@H]2CCCC[C@@H]2NC(=O)C[C@H](Cc2ccc(Cl)cc2)N(C)C1=O [Compound 100, (4S,7S,10S,14R,16aS,20aS)-14-(bicyclo[1.1.1]pentan-1-ylmethyl)-11-(4-chloro-2-(4-(2-((dimethylamino)methyl)-1-methyl-1H-imidazol-5-yl)phenoxy)benzyl)-4-(4-chlorobenzyl)-7-(methoxymethyl)-5,10,16-trimethylhexadecahydrobenzo[l][1,4,7,11,14]pentaazacyclooctadecine-2,6,9,12,15(3H)-pentaone]	105.41	5.4	–
COC[C@@H]1NC(=O)[C@H](CC(=O)N2CCOCC2)N(Cc2ccc(Cl)cc2Oc2ccc(-c3cnc(CN(C)C)n3C)cc2)C(=O)C[C@@H](Cc2ccccc2)C(=O)N(C)[C@H]2CCCC[C@@H]2NC(=O)C[C@H](Cc2ccc(Cl)cc2)N(C)C1=O [Compound 20, (4S,7S,10S,14R,16aS,20aS)-14-benzyl-11-(4-chloro-2-(4-(2-((dimethylamino)methyl)-1-methyl-1H-imidazol-5-yl)phenoxy)benzyl)-4-(4-chlorobenzyl)-7-(methoxymethyl)-5,16-dimethyl-10-(2-morpholino-2-oxoethyl)hexadecahydrobenzo[l][1,4,7,11,14]pentaazacyclooctadecine-2,6,9,12,15(3H)-pentaone]	98.33	1.2	–
COC[C@@H]1NC(=O)[C@H](C)N(Cc2ccc(F)cc2Oc2ccc(-c3cnc(CN(C)C)n3C)cc2)C(=O)C[C@@H](Cc2ccccc2)C(=O)N(C)[C@H]2CCCC[C@@H]2NC(=O)C[C@H](Cc2ccc(Cl)cc2)N(C)C1=O [Compound 48, (4S,7S,10S,14R,16aS,20aS)-14-benzyl-4-(4-chlorobenzyl)-11-(2-(4-(2-((dimethylamino)methyl)-1-methyl-1H-imidazol-5-yl)phenoxy)-4-fluorobenzyl)-7-(methoxymethyl)-5,10,16-trimethylhexadecahydrobenzo[l][1,4,7,11,14]pentaazacyclooctadecine-2,6,9,12,15(3H)-pentaone]	87.82	4.8	–
COC[C@@H]1NC(=O)[C@H](C)N(Cc2ccc(Cl)cc2Oc2ccc(-n3cc(CN4CCCCC4)nn3)cc2)C(=O)C[C@@H](Cc2ccccc2)C(=O)N(C)[C@@H](C)CNC(=O)C[C@H](Cc2ccc(Cl)cc2)N(C)C1=O [Compound 128, (2S,5S,8S,13S,16R)-16-benzyl-1-(4-chloro-2-(4-(4-(piperidin-1-ylmethyl)-1H-1,2,3-triazol-1-yl)phenoxy)benzyl)-8-(4-chlorobenzyl)-5-(methoxymethyl)-2,7,13,14-tetramethyl-1,4,7,11,14-pentaazacyclooctadecane-3,6,10,15,18-pentaone]	51.35	20.4	–
COC[C@@H]1NC(=O)[C@H](C)N(Cc2ccc(Cl)cc2Oc2ccc(-c3cncc(C4CCC(NCCF)CC4)c3)cc2)C(=O)C[C@@H](Cc2ccccc2)C(=O)N(C)[C@@H](C)CNC(=O)C[C@H](Cc2ccc(Cl)cc2)N(C)C1=O (some centres unmarked)	–	–	2.7
COC[C@@H]1NC(=O)C(C)N(Cc2c(F)cc(F)cc2Oc2ccc(-c3cnc(CN(C)C)n3C)cc2)C(=O)C[C@@H](Cc2ccccc2)C(=O)N(C)[C@H]2CCCC[C@@H]2NC(=O)C[C@H](Cc2ccc(Cl)cc2)N(C)C1=O (stereo partly drawn) [Compound 41, (4S,7S,14R,16aS,20aS)-14-benzyl-4-(4-chlorobenzyl)-11-(2-(4-(2-((dimethylamino)methyl)-1-methyl-1H-imidazol-5-yl)phenoxy)-4,6-difluorobenzyl)-7-(methoxymethyl)-5,10,16-trimethylhexadecahydrobenzo[l][1,4,7,11,14]pentaazacyclooctadecine-2,6,9,12,15(3H)-pentaone]	84.34	4.7	–
COC[C@@H]1NC(=O)[C@H](C)N(Cc2ccc(Cl)cc2Oc2ccc(-c3cnc(CN(C)C)n3C)cc2)C(=O)CCC(=O)N(C)CCNC(=O)C[C@H](Cc2ccc(Cl)cc2)N(C)C1=O [Compound 141, (2S,5S,8S)-1-(4-chloro-2-(4-(2-((dimethylamino)methyl)-1-methyl-1H-imidazol-5-yl)phenoxy)benzyl)-8-(4-chlorobenzyl)-5-(methoxymethyl)-2,7,14-trimethyl-1,4,7,11,14-pentaazacyclooctadecane-3,6,10,15,18-pentaone]	102.37	882	–
COC[C@@H]1NC(=O)[C@H](C)N(Cc2c(OCC(F)(F)F)cc(Cl)cc2Oc2ccc(-c3cnc(CN(C)C)n3C)cc2)C(=O)CCC(=O)N(C)[C@H]2CCCC[C@@H]2NC(=O)C[C@H](Cc2ccc(Cl)cc2)N(C)C1=O [Compound 39, (4S,7S,10S,16aS,20aS)-11-(4-chloro-2-(4-(2-((dimethylamino)methyl)-1-methyl-1H-imidazol-5-yl)phenoxy)-6-(2,2,2-trifluoroethoxy)benzyl)-4-(4-chlorobenzyl)-7-(methoxymethyl)-5,10,16-trimethylhexadecahydrobenzo[l][1,4,7,11,14]pentaazacyclooctadecine-2,6,9,12,15(3H)-pentaone]	104.01	0.9	–
COC[C@@H]1NC(=O)[C@H](CCN2CCOCC2)N(Cc2ccc(Cl)cc2Oc2ccc(-c3cnc(CN(C)C)n3C)cc2)C(=O)C[C@@H](Cc2ccccc2)C(=O)N(C)[C@H]2CCCC[C@@H]2NC(=O)C[C@H](Cc2ccc(Cl)cc2)N(C)C1=O [Compound 101, (4S,7S,10S,14R,16aS,20aS)-14-benzyl-11-(4-chloro-2-(4-(2-((dimethylamino)-methyl)-1-methyl-1H-imidazol-5-yl)phenoxy)benzyl)-4-(4-chlorobenzyl)-7-(methoxymethyl)-5,16-dimethyl-10-(2-morpholinoethyl)hexadecahydrobenzo-[l][1,4,7,11,14]pentaazacycloocta-decine-2,6,9,12,15(3H)-pentaone]	94.32	1.1	–
COC[C@@H]1NC(=O)[C@H](C)N(Cc2ccc(Cl)cc2Oc2ccc(-n3cnc(CN4CC5(COC5)C4)c3C)cc2)C(=O)C[C@@H](Cc2ccccc2)C(=O)N(C)[C@@H](C)CNC(=O)C[C@H](Cc2ccc(Cl)cc2)N(C)C1=O [Compound 112, (2S,5S,8S,13S,16R)-1-(2-(4-(4-(2-oxa-6-azaspiro[3.3]heptan-6-ylmethyl)-5-methyl-1H-imidazol-1-yl)phenoxy)-4-chlorobenzyl)-16-benzyl-8-(4-chlorobenzyl)-5-(methoxymethyl)-2,7,13,14-tetramethyl-1,4,7,11,14-pentaazacyclooctadecane-3,6,10,15,18-pentaone]	107.46	3.2	–

Next, values leading:

Max % inhibition [%]	IC50 [1] [nM]	IC50 [nM]	Compound
100.09	0.6	–	COC[C@@H]1NC(=O)[C@H](C)N(Cc2ccc(Cl)cc2Oc2ccc(-c3cnc(CN(C)C)n3C)cc2)C(=O)C[C@@H](Cc2cccnc2)C(=O)N(C)[C@H]2CCCC[C@@H]2NC(=O)C[C@H](Cc2ccc(Cl)cc2)N(C)C1=O [Compound 280, (4S,7S,10S,14R,16aS,20aS)-11-(4-chloro-2-(4-(2-((dimethylamino)methyl)-1-methyl-1H-imidazol-5-yl)phenoxy)benzyl)-4-(4-chlorobenzyl)-7-(methoxymethyl)-5,10,16-trimethyl-14-(pyridin-3-ylmethyl)hexadecahydrobenzo[l][1,4,7,11,14]pentaazacyclooctadecine-2,6,9,12,15(3H)-pentaone]
98.86	33.2	–	COC[C@@H]1NC(=O)[C@H](C)N(Cc2ccc(Cl)cc2Oc2ccc(-c3cnc(CN(C)C)n3C)cc2)C(=O)C[C@@H](Cc2ccccc2)C(=O)N(C)[C@H]2C[C@H]2NC(=O)C[C@H](Cc2ccc(Cl)cc2)N(C)C1=O [Compound 247, (1R,5S,8S,11S,15R,18S)-15-benzyl-12-(4-chloro-2-(4-(2-((dimethylamino)methyl)-1-methyl-1H-imidazol-5-yl)phenoxy)benzyl)-5-(4-chlorobenzyl)-8-(methoxymethyl)-6,11,17-trimethyI-2,6,9,12,17-pentaazabicyclo[16.1.0]nonadecane-3,7,10,13,16-pentaone]
102.01	3.9	–	COC[C@@H]1NC(=O)[C@H](CCS(C)(=O)=O)N(Cc2ccc(Cl)cc2Oc2ccc(-c3cnc(CN(C)C)n3C)cc2)C(=O)C[C@@H](Cc2ccccc2)C(=O)N(C)[C@@H](C)CNC(=O)C[C@H](Cc2ccc(Cl)cc2)N(C)C1=O [Compound 211, (2S,5S,8S,13S,16R)-16-benzyl-1-(4-chloro-2-(4-(2-((dimethylamino)methyl)-1-methyl-1H-imidazol-5-yl)phenoxy)benzyl)-8-(4-chlorobenzyl)-5-(methoxymethyl)-7,13,14-trimethyl-2-(2-(methylsulfonyl)ethyl)-1,4,7,11,14-pentaazacyclooctadecane-3,6,10,15,18-pentaone]
72.22	441	–	COC[C@@H]1NC(=O)[C@H](C)N(Cc2ccc(Cl)cc2Oc2ccc(-c3cnc(CN(C)C)n3C)cc2)C(=O)CC2(CC2)C(=O)N(C)[C@@H](C)CNC(=O)C[C@H](Cc2ccc(Cl)cc2)N(C)C1=O [Compound 201, (6S,11S,14S,17S)-18-(4-chloro-2-(4-(2-((dimethylamino)methyl)-1-methyl-1H-imidazol-5-yl)phenoxy)benzyl)-11-(4-chlorobenzyl)-14-(methoxymethyl)-5,6,12,17-tetramethyl-5,8,12,15,18-pentaazaspiro[2.17]icosane-4,9,13,16,19-pentaone]
111.41	2	–	COC[C@@H]1NC(=O)[C@H](C)N(Cc2ccc(Cl)cc2Oc2ccc(-c3cnc([C@@H](C)N(C)C)n3C)cc2)C(=O)C[C@@H](Cc2ccccc2)C(=O)N(C)[C@@H](C)[C@H](C)NC(=O)C[C@H](Cc2ccc(Cl)cc2)N(C)C1=O [Compound 261, (2S,5S,8S,12S,13S,16R)-16-benzyl-1-(4-chloro-2-(4-(2-((R)-1-(dimethylamino)ethyl)-1-methyl-1H-imidazol-5-yl)phenoxy)benzyl)-8-(4-chlorobenzyl)-5-(methoxymethyl)-2,7,12,13,14-pentamethyl-1,4,7,11,14-pentaazacyclooctadecane-3,6,10,15,18-pentaone]
